Data on 14 compounds can be found in US20120264735A1 (priority 2009, published 2012).

T1 sequence (P08581 25-1390): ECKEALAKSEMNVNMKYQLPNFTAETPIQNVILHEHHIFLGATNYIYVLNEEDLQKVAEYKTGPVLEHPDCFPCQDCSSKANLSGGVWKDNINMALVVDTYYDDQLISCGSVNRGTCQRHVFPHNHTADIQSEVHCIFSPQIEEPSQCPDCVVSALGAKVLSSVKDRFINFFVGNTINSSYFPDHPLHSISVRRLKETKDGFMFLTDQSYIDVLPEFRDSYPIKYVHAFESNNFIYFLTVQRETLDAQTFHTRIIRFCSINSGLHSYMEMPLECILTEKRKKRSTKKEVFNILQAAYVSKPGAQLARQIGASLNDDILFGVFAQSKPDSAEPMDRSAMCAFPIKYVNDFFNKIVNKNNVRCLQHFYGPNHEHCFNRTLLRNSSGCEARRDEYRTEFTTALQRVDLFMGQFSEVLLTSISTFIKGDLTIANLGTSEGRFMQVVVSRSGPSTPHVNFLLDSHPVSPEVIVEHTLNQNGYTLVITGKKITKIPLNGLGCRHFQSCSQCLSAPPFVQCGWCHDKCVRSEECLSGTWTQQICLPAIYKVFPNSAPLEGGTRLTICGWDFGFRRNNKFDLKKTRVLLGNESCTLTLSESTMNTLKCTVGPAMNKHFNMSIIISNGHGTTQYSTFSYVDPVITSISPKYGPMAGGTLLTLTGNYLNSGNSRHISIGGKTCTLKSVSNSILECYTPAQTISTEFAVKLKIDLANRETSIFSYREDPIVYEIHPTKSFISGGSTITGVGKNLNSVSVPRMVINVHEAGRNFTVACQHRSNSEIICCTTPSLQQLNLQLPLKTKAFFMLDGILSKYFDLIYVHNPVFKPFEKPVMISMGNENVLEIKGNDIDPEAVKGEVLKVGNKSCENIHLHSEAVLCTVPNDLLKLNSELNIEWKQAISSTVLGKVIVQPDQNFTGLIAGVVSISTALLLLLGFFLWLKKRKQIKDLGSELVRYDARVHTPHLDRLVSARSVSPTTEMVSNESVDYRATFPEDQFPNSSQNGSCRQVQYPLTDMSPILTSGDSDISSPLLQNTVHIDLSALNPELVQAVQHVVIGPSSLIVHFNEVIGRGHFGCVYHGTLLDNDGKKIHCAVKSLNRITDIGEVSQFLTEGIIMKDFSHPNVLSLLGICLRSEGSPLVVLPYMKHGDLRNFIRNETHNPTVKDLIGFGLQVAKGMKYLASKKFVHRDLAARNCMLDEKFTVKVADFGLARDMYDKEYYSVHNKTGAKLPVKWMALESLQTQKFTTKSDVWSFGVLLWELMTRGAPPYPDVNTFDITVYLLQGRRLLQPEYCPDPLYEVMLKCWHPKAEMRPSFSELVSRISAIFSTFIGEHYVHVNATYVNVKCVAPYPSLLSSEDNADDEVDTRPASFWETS

The assay has as its target T1, c-Met kinase (recombinant c-Met) (Homo sapiens, UniProt P08581).
T1 construct: 0.27 nM recombinant c-Met
The assay is described as follows: In vitro kinase assay I (homogeneous time-resolved fluorescence tyrosine kinase assay). The class given is biochemical. In short, it runs like this: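 Biotinylated peptide (0.5 μM) phosphorylated by 0.2 nM recombinant c-Met with 50 μM MgATP, 60 min at room temperature, pH 7.4, 5% DMSO. EDTA stop; HTRF read with Eu-anti-phosphotyrosine antibody and streptavidin-APC. IC50 from 4-parameter logistic fit.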
For `CCCC(=O)Nc1cccc(Cc2nn(-c3cnn(C)c3)ccc2=O)c1` [Example 634, N-(3-{[1-(1-methyl-1H-pyrazol-4-yl)-4-oxo-1,4-dihydropyridazin-3-yl]methyl}phenyl)butanamide], the IC50 lay within 100 to 1000 nM.

With `Cc1nc(-c2cccc(Cc3nn(-c4cnn(C)c4)ccc3=O)c2)no1` [Example 42, 3-[3-(5-methyl-1,2,4-oxadiazol-3-yl)benzyl]-1-(1-methyl-1H-pyrazol-4-yl)pyridazin-4(1H)-one], the IC50 was 100 to 1000 nM.

In the case of `CCNC(=O)c1cnc(-c2cccc(Cc3nn(-c4cnn(C)c4)ccc3=O)c2)nc1` [Example 484, N-ethyl-2-(3-{[1-(1-methyl-1H-pyrazol-4-yl)-4-oxo-1,4-dihydro-pyridazin-3-yl]methyl}phenyl)pyrimidine-5-carboxamide], the IC50 was < 100 nM.

Turning to `Cn1cc(-n2ccc(=O)c(Cc3ccc4cnccc4c3)n2)cn1` [Example 74, 3-(isoquinolin-6-ylmethyl)-1-(1-methyl-1H-pyrazol-4-yl)pyridazin-4(1H)-one], the IC50 is 100 to 1000 nM.

In the case of `N#Cc1cccc(-n2ccc(=O)c(Cc3cccc(NC(=O)OCCN4CCOCC4=O)c3)n2)c1` [Example 584, 2-(3-oxomorpholin-4-yl)ethyl (3-{[1-(3-cyanophenyl)-4-oxo-1,4-dihydropyridazin-3-yl]methyl}phenyl)carbamate], the IC50 was < 100 nM.

As to `Cn1cc(-n2ccc(=O)c(Cc3cccc(-c4ccn(C)n4)c3)n2)cn1` [Example 39, 1-(1-methyl-1H-pyrazol-4-yl)-3-[3-(1-methyl-1H-pyrazol-3-yl)benzyl]pyridazin-4(1H)-one], the concentration for half-maximal inhibition (IC50) lay within 100 to 1000 nM.

Take `Cn1cc(-n2ccc(=O)c(Cc3cccc(NC(=O)OCC4COCCO4)c3)n2)cn1` (racemic) [Example 568, rac-1,4-dioxan-2-ylmethyl (3-{[1-(1-methyl-1H-pyrazol-4-yl)-4-oxo-1,4-dihydropyridazin-3-yl]methyl}phenyl)carbamate]: the IC50 is < 100 nM.

For `CCn1cc(-n2ccc(=O)c(C(C)c3cccc(-c4ncn(CC)n4)c3)n2)cn1` (single isomer, unassigned) [Example 686, 1-(1-ethyl-1H-pyrazol-4-yl)-3-{(1S or R)-1-[3-(1-ethyl-1H-1,2,4-triazol-3-yl)phenyl]ethyl} pyridazin-4(1H)-one], the IC50 lay within 100 to 1000 nM.

As for `CCCOc1cnc2ccc(Cc3nn(-c4cnn(C)c4)ccc3=O)cc2c1` [Example 63, 1-(1-methyl-1H-pyrazol-4-yl)-3-[(3-propoxyquinolin-6-yl)methyl]pyridazin-4(1H)-one], the IC50 was < 100 nM.

As to `CCn1cc(-n2ccc(=O)c(C(C)c3cccc(-c4ncc(OC)cn4)c3)n2)cn1` (single isomer, unassigned) [Example 332, 1-(1-ethyl-1H-pyrazol-4-yl)-3-{(1S or R)-1-[3-(5-methoxypyrimidin-2-yl)phenyl]ethyl}pyridazin-4(1H)-one], the IC50 lay within 100 to 1000 nM.

For the compound `CCN(CC)CCCOC(=O)Nc1cccc(Cc2nn(-c3cnn(C)c3)ccc2=O)c1` [Example 571, 3-(diethylamino)propyl (3-{[1-(1-methyl-1H-pyrazol-4-yl)-4-oxo-1,4-dihydropyridazin-3-yl]methyl}phenyl)carbamate], the IC50 is < 100 nM.

For the compound `Cn1cc(-n2ccc(=O)c(Cc3cccc(-c4ncc(C5CC5)cn4)c3)n2)cn1` [Example 393, 3-[3-(5-cyclopropyl-pyrimidin-2-yl)benzyl]-1-(1-methyl-1H-pyrazol-4-yl)pyridazin-4(1H)-one], the IC50 is < 100 nM.

With `CCn1cnc(-c2cccc(Cc3nn(-c4cc(F)cc(C#N)c4)ccc3=O)c2)n1` [Example 83, 3-{3-[3-(1-ethyl-1H-1,2,4-triazol-3-yl)benzyl]-4-oxopyridazin-1(4H)-yl}-5-fluorobenzonitrile], the IC50 was < 100 nM.

Take `COCCN1CCC(COC(=O)Nc2cccc(Cc3nn(-c4cc(F)cc(F)c4)ccc3=O)c2)C1` (racemic) [Example 594, rac-[1-(2-methoxyethyl)pyrrolidin-3-yl]methyl-(3-{[1-(3,5-difluorophenyl)-4-oxo-1,4-dihydropyridazin-3-yl]methyl}phenyl)carbamate]: the IC50 is < 100 nM.
